According to US20110028758A1, “Trans-cinnamic acid derivative, its preparation mathod and the use” (priority 2007, published 2011):
Like-named read-outs stand apart in the source and are kept apart here.

Key:
human glioma U251 cells = experiment: MTT anti-tumor test in vitro, U251; format: cell-based
From the text: (§1) A complete culture medium is used for diluting the above original solution into corresponding concentrations for later use.
(§2) Human cervical carcinoma Hela cells, human hepatoma BEL-7402 cells, mucinous Human epidermoid A549 lung cancer cells, human breast cancer MCF-7/S cells, human glioma U251 cells, and human normal embryonic kidney HEK-293 cells are purchased from USA, American Type Culture Collection (ATCC). All the tumor cells are used the DMEM medium (containing 10% FBS, 100 U/ml penicillin and 100 μg/ml streptomycin) for culturing and subculturing, and HEK-293 cells are using RPMI1640 medium (10% FBS, 100 U/ml penicillin, and 100 μg/ml streptomycin) for culturing and subculturing, wherein the culture condition is in a 5% CO2 incubator at 37° C.
(§3) Subculture six kinds of cells, which has a logarithmic growing period, adherent rate about 80%, and in good condition, such as human cervical carcinoma Hela cells, human hepatoma BEL-7402 cells, mucinous Human epidermoid A549 lung cancer cells, human breast cancer MCF-7/S cells, human glioma U251 cells, and human normal embryonic kidney HEK-293 cells. Discard the culture medium, rinse 1-2 times with PBS to remove serum, add 1 ml 0.25% Trypsin-0.01% EDTA (37° C. incubation) to digest for 1-2 minutes, add FBS culture medium to terminate the above digestion, centrifuge at a speed below 800 r/min for 2-3 minutes and discard the supernatant, re-suspended cells in 10% FBS medium, tack the cell suspension liquid for cell counting, adjust the density of the above liquid to 1×10^5/ml, then inoculate to a 96-holes plates (100 μl/hole), and then incubate in 5% CO2 incubator at 37° C. overnight. The next day add above cells to different concentrations of I-a, I-b, I-c and I-d, 100 μl/hole (its final concentration is respectively 30, 60, 120, 240, 480 μg/ml); meanwhile, set up the blank control group (0 μM), and establish 3 holes. Continuing the cultural process, discard the culture medium after 48 hours that the drug has been effected, add 100 μl PBS of 0.5 mg/ml MTT (PH 7.2) into each holes, after 4 hours culture, remove the culture medium by adherent cells express flipping method, add 100 μl of DMSO to each holes, oscillate it by micro-oscillation device for 5 minutes, and measure the OD value at 490 nm wavelength. Repeat the above experiment three times to get an average value. Calculate the inhibition rate (IR %) of the tumor cell proliferation in vitro from different concentrations of I-a, I-b, I-c, I-d by the following formula:
(§4) IR %=(1−ODsampale/ODcontrol)×100%
(§5) Use SPSS11.5 software to calculate the half inhibitory concentration IC50 of I-a, I-b, I-c and I-d. The results are shown in Table 2 to illustrate IC50 values (unit: μg/ml) of the four compounds.

[1] = tested on: human normal embryonic kidney HEK-293 cells; experiment: MTT test on normal cells, HEK-293; format: cell-based; settings: HEK- (HEK-293), MTT, 48 hours
From the text: as §1, §2
Subculture six kinds of cells, which has a logarithmic growing period, adherent rate about 80%, and in good condition, such as human cervical carcinoma Hela cells, human hepatoma BEL-7402 cells, mucinous Human epidermoid A549 lung cancer cells, human breast cancer MCF-7/S cells, human glioma U251 cells, and human normal embryonic kidney HEK-293 cells. […] Repeat the above experiment three times to get an average value.
as §4

[2] = tested on: human hepatoma BEL-7402 cells; experiment: MTT anti-tumor test in vitro, BEL-7402; format: cell-based; settings: Bel- (BEL-7402)
From the text: as §1, §2, §3, §4, §5

[3] = single tail vein administration 350 mg/kg
Procedure: After the drug delivery, continuously observe the mice responses for 4 hours; after all, observe the mice twice a day (one is in the morning, and the other is in the afternoon) for 14 days, wherein the observation includes the appearance, behavior, secretions, excreta of the mice etc., and recording all the death situation, poisoning symptoms, the starting time and ending time of toxic reactions of the mice, severity, duration time of toxic, and to see if it is reversible reaction etc., sent it to the pathology examination if necessary, weight the mice before and after the drug delivered day of 3, 7, 10, and 14 days. After finishing the observation process, execute all of the mice, and anatomize the dead bodies of mice.

[4] = From the text: (§6) The 180 tumor-bearing mice are divided into 18 groups by the weigh of the mice, wherein each group has 10 mice (half male and half female). The drug delivery methods of each group are shown in Table 3 to illustrate eighteen groups of mice drug delivery situation.
(§7) Group 2 is the cyclophosphamide (CTX) group, and the mice of group 2 are only given the cyclophosphamide in the intraperitoneal of the mice on the second day of the tumor-bearing.
(§8) Group 3 to 18 groups are given the four compounds respectively, wherein the groups delivered 25 mg/kg drug are tail vein low-dose group, wherein the groups delivered 50 mg/kg drugs are the tail vein medium-dose group, wherein the groups delivered 100 mg/kg drugs are the tail vein high-dose group, wherein the groups delivered 200 mg/kg drugs are the oral enteral group. These mice from group 3 to 18 start the drug delivery on the second day of the tumor-bearing, and delivered once a day for 10 sequent days.
After the drug delivery, weight the mice weight, then execute the mice, and then weight the spleen and thymus weight by electronic weighting scale respectively. The spleen index and thymus index are the weight (mg) of mice spleen, thymus of each group/mice weight (g).

[5] = tested on: mice ascites hepatoma cell strain H22; experiment: Anti-tumor test in vivo, mice transplanted tumor of liver cancer H22; parameters: species or system Kunming mice
Procedure: The mice ascites hepatoma cell strain H22 is purchased from the Experimental Center of Zhongshan University.
Recovery the mice ascites hepatoma cell strain H22, put the cell suspension liquid into a centrifugal tube and use the 4° C. saline to wash the suspension liquid twice, then centrifuge to discard the supernatant, add appropriate 4° C. saline to dilute the suspension liquid, count cells with 0.2% trypan blue, adjust the density to 10^7 cell/ml, according to 0.2 (ml/mice) intraperitoneal inoculation H22 cell suspension liquid.
After ten days of the intraperitoneal inoculation, the cervical vertebra is dislocated. Disinfect the mice abdominal skin, and suck the milky ascites with a sterile syringe, then adjust the concentration of tumor cells to 1×10^7 cell/ml with injection used saline. Disinfect the right armpit skin of the Kunming mice with alcohol swab, subcutaneously vaccinate the cell suspension liquid 0.2 ml, conventional feeding. […] Totally there are 180 tumor-bearing mice.
as §6
Group 1 is the model group, and the mice of group 1 are given the tail vein saline injection daily started on the second day of the tumor-bearing for 10 days.
as §7, §8
The above drug deliveries are 20 ml/kg.
After finishing the drug delivery process, weight the mice, then kill the mice by pulling off the neck, and anatomy to get the tumor tissue of the mice on the next day of finishing the drug delivery process, and then weight the anatomized tumor by electronic weighing scales to calculate the inhibition rate.

[6] = tested on: human breast cancer MCF-7/S cells; experiment: MTT anti-tumor test in vitro, MCF-7/S; format: cell-based; settings: MCF-7 (MCF-7/S)
From the text: as §1, §2, §3, §4, §5

[7] = tested on: human cervical carcinoma Hela cells; experiment: MTT anti-tumor test in vitro, Hela; format: cell-based; settings: for IC50 value: Hela, MTT, 48 hours
From the text: as §1, §2, §3, §4, §5

[8] = tested on: mucinous Human epidermoid A549 lung cancer cells; experiment: MTT anti-tumor test in vitro, A549; format: cell-based; settings: for IC50 value: A549, MTT, 48 hours
From the text: as §1, §2, §3, §4, §5

[9] = average of three experiments ± SD, 48 hours
[10] = average of three experiments ± SD
[11] = ip. 60/single mg/kg on the second day of tumor-bearing, H22 tumor-bearing mice
[12] = ip. 60/single mg/kg on the second day of tumor-bearing

Q: Which results are given for “2,4-dimethoxy-3-isopentenyl-cinnamic acid (E:Z=1:1) [I-d]”?
A: IC50 value (human glioma U251 cells; [9]): 204.44 ± 9.50 µg/mL; IC50 value (human glioma U251 cells; experiment 1, 48 hours): 210 µg/mL; IC50 value (human glioma U251 cells; experiment 2, 48 hours): 193 µg/mL; IC50 value [1, 10]: 350.77 ± 14.09 µg/mL; IC50 value ([1]; experiment 1): 347 µg/mL; IC50 value ([1]; experiment 2): 366 µg/mL; IC50 value [2, 9]: 216.72 ± 5.07 µg/mL; IC50 value ([2]; experiment 1, 48 hours): 221 µg/mL; IC50 value ([2]; experiment 2, 48 hours): 211 µg/mL; drug reaction after administration [3]: abnormally excited at first, and then become in an inhibit state; Mice weight/g After drug delivery ([4]; mouse, in vivo): 20.0 ± 2.1 g; Mice weight/g Before drug deli. ([4]; mouse, in vivo): 24.6 ± 2.9 g; effect near the tail vein of the mice and its surrounding tissue ([4]; mouse, in vivo): irritation or corrosive; general observation after injection (central nervous signs) ([4]; mouse, in vivo): central nerve inhibition phenomenon; splenomegaly of the tumor-bearing mice ([4]; mouse, in vivo): can cause the splenomegaly; Tumor weight/g ([5]; i.g. 200 mg·(kg·d)^−1, once a day for 10 days): 0.991 ± 0.410 g; Tumor weight/g ([5]; i.v. 25 mg·(kg·d)^−1, once a day for 10 days): 1.307 ± 0.436 g; IR/% (inhibition rate) ([5]; i.v. 25 mg·(kg·d)^−1, once a day for 10 days (low-dose group)): 14.7%; Tumor weight/g ([5]; i.v. 50 mg·(kg·d)^−1, once a day for 10 days): 1.068 ± 0.437 g; IR/% (inhibition rate) ([5]; i.v. 50 mg·(kg·d)^−1, once a day for 10 days (medium-dose group)): 30.3%; Tumor weight/g ([5]; i.v. 100 mg·(kg·d)^−1, once a day for 10 days): 0.901 ± 0.425 g; IR/% (inhibition rate) ([5]; i.v. 100 mg·(kg·d)^−1, once a day for 10 days (high-dose group)): 41.2%; IC50 value [6, 9]: 193.46 ± 7.57 µg/mL; IC50 value ([6]; experiment 1, 48 hours): 200 µg/mL; IC50 value ([6]; experiment 2, 48 hours): 196 µg/mL; IC50 value [7, 10]: 153.59 ± 13.03 µg/mL; IC50 value ([7]; experiment 1): 144 µg/mL; IC50 value ([7]; experiment 2): 149 µg/mL; HeLa cell proliferation IC50 values ([7]; at 48 hours): 148.59 ± 5.96 µg/mL; IC50 value ([8]; experiment 1): 190 µg/mL; IC50 value ([8]; experiment 2): 183 µg/mL; A549 cell proliferation IC50 values ([8]; at 48 hours): 184.56 ± 5.80 µg/mL

Q: With `O=P1(N(CCCl)CCCl)NCCCO1` (centres unmarked) [CTX, cyclophosphamide, reference compound] as the molecule, how does the “Mice weight/g After drug delivery” value [4, 11] read?
A: Its value is 19.6 ± 2.0 g.

Q: And the “Mice weight/g Before drug deli.” value [4, 11]?
A: Its value is 23.6 ± 1.8 g.

Q: What about the “Spleen index/mg · g^−1” value [4, 11] of the same molecule?
A: Its value is 3.00 ± 0.59 mg/g.

Q: And the “Thymus index/mg · g^−1” value [4, 11]?
A: Its value is 2.46 ± 0.65 mg/g.

Q: What about the “IR/% (inhibition rate)” value [5, 12] of the same molecule?
A: The value was 55.2%.

Q: And the Tumor weight/g [5, 12]?
A: The Tumor weight/g was 0.686 ± 0.303 g.
